The IC50 is the concentration that gives 50% inhibition.

3 compounds from patent US20050043341A1, “3-'Hydroxy-(-4-trifluoromethylphenyl)-methyl-7-spirocyclobutyl-5,6,7 8-tetrahydroquinolin-5-ol derivatives and the use of the same as cholesterol ester transfer protein (cetp) inhibitors” (priority 2001, published 2005) can be followed below.

One experiment concerns transgenic hCETP mice. The experiment can be described thus: In vivo activity in transgenic hCETP mice (HDL). The conditions noted are these: stomach tube. As for the experimental part:
In experiments for the determination of the oral action on lipoproteins and triglycerides, test substance is administered to transgenic mice using a stomach tube (Dinchuck, Hart, Gonzalez, Karmann, Schmidt, Wirak; BBA (1995), 1295, 301). Before the start of the experiment, blood is taken from the mice retroorbitally in order to determine cholesterol and triglycerides in the serum. The serum is obtained as described above for hamsters by incubation at 4° C. overnight and subsequent centrifugation at 6000×g. […] The change in the parameters measured is expressed as the percentage change compared with the starting value.

Experiment [1] has as its target T1, CETP (Homo sapiens, UniProt P11597).
T1 construct: CETP is obtained in partially purified form from human plasma; from tissue; host or cells: human plasma
T1 sequence (P11597 18-493): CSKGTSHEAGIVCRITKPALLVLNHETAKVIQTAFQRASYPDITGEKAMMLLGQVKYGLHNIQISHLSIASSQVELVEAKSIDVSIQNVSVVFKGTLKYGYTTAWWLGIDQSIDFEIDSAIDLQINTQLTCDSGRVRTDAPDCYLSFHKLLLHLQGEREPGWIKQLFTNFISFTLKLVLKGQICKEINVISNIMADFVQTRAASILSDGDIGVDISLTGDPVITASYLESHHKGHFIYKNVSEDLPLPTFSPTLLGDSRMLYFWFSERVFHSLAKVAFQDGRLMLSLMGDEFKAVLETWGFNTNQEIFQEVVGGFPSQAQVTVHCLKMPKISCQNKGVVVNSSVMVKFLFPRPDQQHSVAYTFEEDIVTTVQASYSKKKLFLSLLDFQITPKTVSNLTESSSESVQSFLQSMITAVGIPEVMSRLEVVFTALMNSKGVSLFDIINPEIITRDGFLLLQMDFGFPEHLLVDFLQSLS
The experiment can be described thus: CETP fluorescence test. To be noted: CETP from human plasma, 37° C., 4 hours; read-out: IC50 (nM) Fluor. test. Format: biochemical. As for the experimental part:
(§1) CETP is obtained in partially purified form from human plasma by differential centrifugation and column chromatography and used for the test. To this end, human plasma is adjusted to a density of 1.21 g per ml using NaBr and centrifuged at 4° C. at 50000 rpm for 18 h. The bottom fraction (d>1.21 g/ml) is applied to a Sephadex® Phenyl-Sepharose 4B (Pharmacia) column, washed with 0.15 M NaCl/0.001 M tris HCl pH 7.4 and then eluted with dist. water. Die CETP-active fractions are pooled, dialysed against 50 mM Na acetate pH 4.5 and applied to a CM-Sepharose® (Pharmacia) column. The mixture is then eluted using a linear gradient (0-1 M NaCl). The pooled CETP fractions are dialysed against 10 mM TrisHCl pH 7.4 and then further purified by chromatography on a Mono Q® column (Pharmacia).
Measurement of the CETP-catalysed transfer of a fluorescent cholesterol ester between liposomes—modified according to the procedure of Bisgaier et al., J. Lipid Res. 34, 1625 (1993).
For the production of the donor liposomes, 1 mg of cholesteryl 4,4-difluoro-5,7-dimethyl-4-bora-3a,4a-diaza-s-indacene-3-dodecanoate (cholesteryl BODIPY® FL C12, Molecular Probes) is dissolved in 600 μl of dioxane with 5.35 mg of triolein and 6.67 mg of phosphatidylcholine with gentle warming in an ultrasonic bath and this solution is added very slowly with ultrasonication to 63 ml of 50 mM tris/HCl, 150 mM NaCl, 2 mM EDTA buffer pH 7.3 at RT.
The suspension is then ultrasonicated under an N2 atmosphere for 30 minutes in the Braukson ultrasonic bath at about 50 watts, the temperature being kept at about 20° C.
The acceptor liposomes are obtained analogously from 86 mg of cholesteryl oleate, 20 mg of triolein and 100 mg of phosphatidylcholine dissolved in 1.2 ml of dioxane and 114 ml of above buffer by ultrasonication at 50 watts (20° C.) for 30 minutes.
For testing, a test mix consisting of 1 part of above buffer, 1 part of donor liposomes and 2 parts of acceptor liposomes is used.
80 μl of test mix are treated with 1-3 μg of enriched CETP fraction, obtained from human plasma by means of hydrophobic chromatography, and 2 μl of the substance to be investigated in DMSO and incubated at 37° C. for 4 hours.
The change in the fluorescence at 485/535 nm is a measure of the CE transfer; the inhibition of the transfer in comparison to the control batch without substance is determined.

A further experiment has as its system Syrian golden hamsters. Nature of the experiment: In vivo activity in Syrian golden hamsters (HDL cholesterol). The conditions noted are these: perorally. As for the experimental part:
In experiments for the determination of the oral action on lipoproteins and triglycerides, test substance dissolved in DMSO and 0.5% suspended in Tylose are administered perorally by means of a stomach tube to Syrian golden hamsters bred in-house. For the determination of the CETP activity, before the start of the experiment blood is taken by retro-orbital puncture (about 250 μl). The test substances are then administered perorally by means of a stomach tube. The control animals receive identical volumes of solvent without test substance. The feed is then withdrawn from the animals and blood is taken at various times—up to 24 hours after substance administration—by puncture of the retroorbital venous plexus.
Clotting is terminated by incubation at 4° C. overnight, then centrifugation is carried out for 10 minutes at 6000×g. The content of cholesterol and triglycerides in the serum thus obtained is determined with the aid of modified commercially obtainable enzymatic tests (Ecoline 25 Cholesterol 1.14830.0001 Merck Diagnostica, Ecoline 25 Triglycerides 1.14856.0001 Merck Diagnostica). Serum is suitably diluted using physiological saline solution.
10 μl of serum dilution are treated with 200 μl of Ecoline 25 reagent in 96-hole plates and incubated for 10 minutes at room temperature. The optical density is then determined at a wavelength of 490 nm using an automatic plate reader. The triglyceride or cholesterol concentration contained in the samples is determined with the aid of a standard curve measured in parallel.
The determination of the content of HDL cholesterol is carried out after precipitation of the ApoB-containing lipoproteins (Sigma 352-4 HDL cholesterol reagent) according to the manufacturer's instructions.

Experiment [2] concerns the target T1, CETP. The experiment can be described thus: CETP-SPA test. Type of experiment: biochemical. To be noted: 3H-cholesterol ester transfer from HDL to biotin-LDL, 37° C., 18 h. How it is done:
as §1
50 ml of fresh human EDTA plasma are adjusted to a density of 1.12 using NaBr and centrifuged at 4° C. in a Ty 65 rotor at 50000 rpm for 18 h. The upper phase is used for the obtainment of cold LDL. The lower phase is dialysed against 3×41 of PDB buffer (10 mM tris/HCl pH 7.4, […], 1 mM EDTA, 0.02% NaN3). Per 10 ml of retentate volume, 20 μl of 3H-cholesterol (Dupont NET-725; 1 μC/μl dissolved in ethanol!) is then added and the mixture is incubated at 37° C. under N2 for 72 h.
The batch is then adjusted to the density 1.21 using NaBr and centrifuged at 20° C. in a Ty 65 rotor at 50000 rpm for 18 h. The upper phase is recovered and the lipoprotein fractions are purified by gradient centrifugation. To this end, the isolated, labelled lipoprotein fraction is adjusted to a density of 1.26 using NaBr. 4 ml each of this solution are covered in centrifuged tubes (SW 40 rotor) with a layer of 4 ml of a solution of density 1.21 and 4.5 ml of a solution of 1.063 (density solutions of PDB buffer and NaBr) and then centrifuged for 24 h at 38000 rpm and 20° C. in the SW 40 rotor. The intermediate layer lying between the density 1.063 and 1.21, containing the labelled HDL, is dialysed against 3×100 volumes of PDB buffer at 4° C.
The retentate contains radiolabelled ^3H-CE-HDL, which, adjusted to about 5×10^6 cmp per ml, is used for the test.
For testing of the CETP activity, the transfer of ^3H-cholesterol ester from human HD lipoproteins to biotinylated LD lipoproteins is measured.
The reaction is ended by addition of streptavidin-SPA®beads (Amersham) and the transferred radioactivity is determined directly in a liquid scintillation counter.
In the test batch, 10 μl of HDL-^3H-cholesterol ester (˜50000 cpm) are incubated at 37° C. for 18 h with 10 μl of biotin-LDL (Amersham) in 50 mM Hepes/0.15 M NaCl/0.1% bovine serum albumin/0.05% NaN3 pH 7.4 containing 10 μl of CETP (1 mg/ml) and 3 μl of solution of the substance to be tested (dissolved in 10% DMSO/1% RSA). 200 μl of the SPA-streptavidin bead solution (TRKQ 7005) are then added, incubated further with shaking for 1 h and then measured in a scintillation counter.
Corresponding incubations with 10 μl of buffer, 10 μl of CETP at 4° C. and 10 μl of CETP at 37° C. serve as controls.
The activity transferred in the control batches with CETP at 37° C. is rated as 100% transfer. The substance concentration at which this transfer is reduced to half is specified as the IC50 value.

On to `CC(C)c1nc2c(c(C3CCCC3)c1[C@@H](O)c1ccc(C(F)(F)F)cc1)[C@@H](O)CC1(CCC1)C2` [Example 69, (5S)-2-Isopropyl-4-cyclopentyl-3-[(S)-hydroxy-(4-trifluoromethylphenyl)-methyl]-7-spirocyclobutyl-5,6,7,8-tetrahydroquinolin-5-ol], for which the “% HDL increase after 4 d (Dose: 4 × 10 mg/kg)” value in the experiment on transgenic hCETP mice is reported as 28%. At CETP [1], the IC50 is 70 nM.
For `O[C@@H](c1ccc(C(F)(F)F)cc1)c1c(C2CCCC2)nc2c(c1C1CCCC1)[C@@H](O)CC1(CCC1)C2` [Example 71, (5S)-2,4-Dicyclopentyl-3-[(S)-hydroxy-(4-trifluoromethylphenyl)-methyl]-7-spirocyclobutyl-5,6,7,8-tetrahydroquinolin-5-ol], the IC50 on CETP [1] came out at 40 nM. In addition, the “% HDL increase after 24 h (Dose: 2 × 10 mg/kg)” value in the experiment with Syrian golden hamsters is recorded as 14%.
Consider `O[C@@H](c1ccc(C(F)(F)F)cc1)c1c(C2CCCC2)nc2c(c1-c1ccc(F)cc1)[C@@H](O)CC1(CCC1)C2` [Example 80, (5S)-2-Cyclopentyl-4-(4-fluorophenyl)-3-[(S)-hydroxy-(4-trifluoromethylphenyl)-methyl]-7-spirocyclobutyl-5,6,7,8-tetrahydroquinolin-5-ol], for which the figures for the IC50 on CETP [2] and at CETP [1] were 5 nM and 9 nM, respectively. The “% HDL increase after 24 h (Dose: 2 × 10 mg/kg)” value in the experiment with Syrian golden hamsters was found to be 17%.
